Assay results from ChEMBL document CHEMBL2010662, “Discovery of oxazole-based PDE4 inhibitors with picomolar potency” (Bioorg Med Chem Lett, 2012).
pIC50: −log10 of the molar value.

How the values were obtained:
[1] = molecular target: 3',5'-cyclic-AMP phosphodiesterase 4B (Homo sapiens, UniProt Q07343); experiment: Inhibition of PDE4B
[2] = molecular target: Dual 3',5'-cyclic-AMP and -GMP phosphodiesterase 11A (Homo sapiens, UniProt Q9HCR9); experiment: Inhibition of PDE11
[3] = Inhibition of PDE10
[4] = molecular target: 3',5'-cyclic-AMP phosphodiesterase 4D (Homo sapiens, UniProt Q08499); experiment: Inhibition of PDE4D
Sequence of 3',5'-cyclic-AMP phosphodiesterase 4D (Q08499 whole entry): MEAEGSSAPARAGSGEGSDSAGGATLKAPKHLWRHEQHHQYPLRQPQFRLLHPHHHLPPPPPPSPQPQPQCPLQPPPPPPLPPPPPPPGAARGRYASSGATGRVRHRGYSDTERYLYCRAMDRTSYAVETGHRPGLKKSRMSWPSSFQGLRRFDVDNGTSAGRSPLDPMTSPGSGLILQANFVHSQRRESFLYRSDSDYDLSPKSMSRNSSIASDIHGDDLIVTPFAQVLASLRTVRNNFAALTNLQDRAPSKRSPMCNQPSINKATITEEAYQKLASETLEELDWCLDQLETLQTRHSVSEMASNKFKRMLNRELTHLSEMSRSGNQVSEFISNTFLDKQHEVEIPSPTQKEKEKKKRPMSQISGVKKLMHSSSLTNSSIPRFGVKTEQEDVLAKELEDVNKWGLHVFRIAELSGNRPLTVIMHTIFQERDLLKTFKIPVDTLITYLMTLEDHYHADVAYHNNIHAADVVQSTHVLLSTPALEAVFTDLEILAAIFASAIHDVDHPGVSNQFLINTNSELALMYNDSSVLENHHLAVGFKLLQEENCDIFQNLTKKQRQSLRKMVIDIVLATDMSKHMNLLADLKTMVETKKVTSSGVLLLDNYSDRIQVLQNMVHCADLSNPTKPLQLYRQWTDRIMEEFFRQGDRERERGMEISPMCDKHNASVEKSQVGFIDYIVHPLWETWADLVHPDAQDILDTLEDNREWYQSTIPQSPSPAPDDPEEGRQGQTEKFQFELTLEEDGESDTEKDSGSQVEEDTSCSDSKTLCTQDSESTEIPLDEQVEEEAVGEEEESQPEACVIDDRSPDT

Cytochrome P450 2D6 = Cytochrome P450 2D6 (Homo sapiens, UniProt P10635); experiment: Inhibition of CYP2D6; assay type: ADME
Sequence of Cytochrome P450 2D6 (P10635 whole entry): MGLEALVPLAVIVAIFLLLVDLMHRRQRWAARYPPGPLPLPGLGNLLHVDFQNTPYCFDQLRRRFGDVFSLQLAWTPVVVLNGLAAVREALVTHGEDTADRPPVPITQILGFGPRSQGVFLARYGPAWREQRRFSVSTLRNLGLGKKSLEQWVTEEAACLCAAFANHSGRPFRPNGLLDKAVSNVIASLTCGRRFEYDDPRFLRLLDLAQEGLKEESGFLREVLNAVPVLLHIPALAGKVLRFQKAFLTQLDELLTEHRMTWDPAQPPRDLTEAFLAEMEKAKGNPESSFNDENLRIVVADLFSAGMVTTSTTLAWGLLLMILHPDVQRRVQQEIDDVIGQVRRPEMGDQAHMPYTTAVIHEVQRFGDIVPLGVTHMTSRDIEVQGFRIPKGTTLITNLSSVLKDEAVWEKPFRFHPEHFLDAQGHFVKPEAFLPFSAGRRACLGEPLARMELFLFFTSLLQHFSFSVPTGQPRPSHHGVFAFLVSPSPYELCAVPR

Cytochrome P450 3A4 = Cytochrome P450 3A4 (Homo sapiens, UniProt P08684); experiment: Inhibition of CYP3A4; assay type: ADME
Sequence of Cytochrome P450 3A4 (P08684 whole entry): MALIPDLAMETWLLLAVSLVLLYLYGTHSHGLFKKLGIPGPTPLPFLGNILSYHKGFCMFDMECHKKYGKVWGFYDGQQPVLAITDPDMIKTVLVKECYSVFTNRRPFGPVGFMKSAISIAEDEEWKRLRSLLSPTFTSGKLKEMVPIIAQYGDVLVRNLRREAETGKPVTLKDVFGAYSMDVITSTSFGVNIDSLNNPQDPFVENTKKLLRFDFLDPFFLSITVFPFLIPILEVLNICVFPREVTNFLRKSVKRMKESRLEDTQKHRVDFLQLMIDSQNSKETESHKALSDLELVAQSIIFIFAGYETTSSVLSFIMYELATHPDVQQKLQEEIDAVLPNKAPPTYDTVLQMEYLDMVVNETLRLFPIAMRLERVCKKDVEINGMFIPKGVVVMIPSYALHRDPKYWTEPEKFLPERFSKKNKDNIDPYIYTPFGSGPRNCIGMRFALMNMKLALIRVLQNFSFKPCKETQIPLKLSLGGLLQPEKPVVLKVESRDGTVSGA

Cytochrome P450 2C9 = Cytochrome P450 2C9 (Homo sapiens, UniProt P11712); experiment: Inhibition of CYP2C9; assay type: ADME
Sequence of Cytochrome P450 2C9 (P11712 whole entry): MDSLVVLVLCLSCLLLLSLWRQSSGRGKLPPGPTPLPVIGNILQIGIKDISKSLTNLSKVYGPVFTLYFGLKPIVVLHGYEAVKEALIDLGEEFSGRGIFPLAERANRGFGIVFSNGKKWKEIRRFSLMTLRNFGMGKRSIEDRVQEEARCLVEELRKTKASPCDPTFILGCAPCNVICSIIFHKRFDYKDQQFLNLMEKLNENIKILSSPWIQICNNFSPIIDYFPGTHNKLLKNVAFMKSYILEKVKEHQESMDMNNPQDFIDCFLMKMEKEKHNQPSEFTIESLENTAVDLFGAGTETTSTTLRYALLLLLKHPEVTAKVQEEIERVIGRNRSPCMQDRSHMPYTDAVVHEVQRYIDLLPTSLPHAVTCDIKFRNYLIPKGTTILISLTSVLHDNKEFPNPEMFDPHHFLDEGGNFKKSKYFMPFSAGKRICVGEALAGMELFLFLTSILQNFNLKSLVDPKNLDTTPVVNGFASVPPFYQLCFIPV

[5] = Oral bioavailability in rat at 10 mg/kg; assay type: ADME, organism-based; conditions: in vivo
Rattus norvegicus = experiment: Antiinflammatory activity in po dosed rat assessed as inhibition of LPS-induced pulmonary inflammation; assay type: functional
Cytochrome P450 2C19 = Cytochrome P450 2C19 (Homo sapiens, UniProt P33261); experiment: Inhibition of CYP2C19; assay type: ADME
Sequence of Cytochrome P450 2C19 (P33261 whole entry): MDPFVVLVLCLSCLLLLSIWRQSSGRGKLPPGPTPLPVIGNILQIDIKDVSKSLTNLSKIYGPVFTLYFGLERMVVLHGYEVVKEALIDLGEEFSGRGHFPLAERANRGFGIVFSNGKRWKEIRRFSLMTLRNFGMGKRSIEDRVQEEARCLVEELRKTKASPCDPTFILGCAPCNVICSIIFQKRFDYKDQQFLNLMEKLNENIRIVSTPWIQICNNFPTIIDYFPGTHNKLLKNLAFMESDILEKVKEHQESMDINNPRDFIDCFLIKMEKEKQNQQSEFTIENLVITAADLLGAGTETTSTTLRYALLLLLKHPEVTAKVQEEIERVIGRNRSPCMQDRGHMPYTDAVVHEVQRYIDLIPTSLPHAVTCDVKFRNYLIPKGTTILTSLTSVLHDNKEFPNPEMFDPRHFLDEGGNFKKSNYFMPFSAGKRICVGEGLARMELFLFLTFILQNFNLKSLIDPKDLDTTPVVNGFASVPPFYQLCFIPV

[6] = Cmax in rat at 10 mg/kg, po; assay type: ADME, organism-based; parameters: dose 10 mg/kg, route oral; conditions: in vivo
[7] = Inhibition of PDE4-mediated TNF-alpha release by cell based assay

Sequence of Dual 3',5'-cyclic-AMP and -GMP phosphodiesterase 11A (Q9HCR9 whole entry): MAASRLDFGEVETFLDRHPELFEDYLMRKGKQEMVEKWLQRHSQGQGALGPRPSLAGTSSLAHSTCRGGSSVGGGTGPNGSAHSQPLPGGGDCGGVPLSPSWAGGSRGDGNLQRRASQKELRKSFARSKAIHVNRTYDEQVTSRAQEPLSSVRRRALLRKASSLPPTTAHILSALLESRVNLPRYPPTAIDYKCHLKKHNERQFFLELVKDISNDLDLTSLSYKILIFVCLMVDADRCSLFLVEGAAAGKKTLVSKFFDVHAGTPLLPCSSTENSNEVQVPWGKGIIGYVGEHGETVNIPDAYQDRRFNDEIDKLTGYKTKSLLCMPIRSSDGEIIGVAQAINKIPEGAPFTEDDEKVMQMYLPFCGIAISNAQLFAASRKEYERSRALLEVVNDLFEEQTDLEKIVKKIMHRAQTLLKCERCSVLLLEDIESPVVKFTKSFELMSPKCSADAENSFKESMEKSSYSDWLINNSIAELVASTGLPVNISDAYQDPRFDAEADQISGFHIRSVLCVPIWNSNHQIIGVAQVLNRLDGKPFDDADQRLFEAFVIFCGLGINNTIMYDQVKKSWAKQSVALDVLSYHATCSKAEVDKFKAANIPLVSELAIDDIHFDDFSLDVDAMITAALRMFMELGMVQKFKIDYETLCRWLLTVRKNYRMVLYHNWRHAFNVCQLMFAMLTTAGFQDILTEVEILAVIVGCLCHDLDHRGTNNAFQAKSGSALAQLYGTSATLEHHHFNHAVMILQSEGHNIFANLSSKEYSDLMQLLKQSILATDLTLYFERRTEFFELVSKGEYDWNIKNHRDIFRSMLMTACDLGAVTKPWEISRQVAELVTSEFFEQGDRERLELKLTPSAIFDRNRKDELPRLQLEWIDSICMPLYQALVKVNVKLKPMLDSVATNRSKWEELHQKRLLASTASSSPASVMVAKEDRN
Sequence of 3',5'-cyclic-AMP phosphodiesterase 4B (Q07343 whole entry): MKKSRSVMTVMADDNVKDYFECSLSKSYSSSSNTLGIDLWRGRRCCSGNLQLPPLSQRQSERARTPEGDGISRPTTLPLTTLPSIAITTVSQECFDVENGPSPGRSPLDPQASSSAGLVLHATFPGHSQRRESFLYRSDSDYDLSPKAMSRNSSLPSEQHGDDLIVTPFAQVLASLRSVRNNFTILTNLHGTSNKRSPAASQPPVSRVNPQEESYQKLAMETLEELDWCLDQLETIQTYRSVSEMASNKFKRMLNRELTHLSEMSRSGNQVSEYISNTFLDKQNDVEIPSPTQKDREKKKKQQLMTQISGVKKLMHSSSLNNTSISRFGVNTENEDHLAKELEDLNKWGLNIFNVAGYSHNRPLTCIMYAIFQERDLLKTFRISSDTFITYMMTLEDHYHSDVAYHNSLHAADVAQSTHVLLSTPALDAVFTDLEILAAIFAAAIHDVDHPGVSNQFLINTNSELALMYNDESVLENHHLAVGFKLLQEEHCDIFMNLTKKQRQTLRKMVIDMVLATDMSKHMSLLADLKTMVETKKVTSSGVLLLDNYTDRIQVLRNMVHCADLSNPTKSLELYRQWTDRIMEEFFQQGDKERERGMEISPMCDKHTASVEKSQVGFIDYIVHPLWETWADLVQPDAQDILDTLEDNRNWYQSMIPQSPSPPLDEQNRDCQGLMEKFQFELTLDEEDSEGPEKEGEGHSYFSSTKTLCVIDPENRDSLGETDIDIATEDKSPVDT

Structure (SMILES) | pIC50 [1] | pIC50 [2] | pIC50 [3] | also measured
COc1ccc(-c2nc(C(=O)NCc3ccc(Cl)cc3)c([C@H](C)N)o2)c2ccc(C(F)(F)F)nc12 | 9.46 | 5.96 | 6.19 | 
COc1ccc(-c2nc(C(=O)NCc3cccc(Cl)c3)c(CN)o2)c2ccc(C(F)(F)F)nc12 | 8.82 | 5.68 | 6.11 | 
COc1ccc(-c2nc(C(=O)N[C@H](CO)c3ccccc3)c(CN)o2)c2ccc(C(F)(F)F)nc12 | 8.80 |  |  | 
COc1ccc(-c2nc(C(=O)NCc3c(F)cccc3Cl)c(CN)o2)c2ccc(C(F)(F)F)nc12 | 10.00 | 5.89 | 6.39 | 
COc1ccc(-c2nc(C(=O)NCc3cccc(F)c3)c(CN)o2)c2ccc(C(F)(F)F)nc12 | 8.74 | 5.41 | 6.09 | 
COc1ccc(-c2nc(C(=O)NCc3c(F)cc(F)cc3F)c([C@H](C)N)o2)c2ccc(C(F)(F)F)nc12 | 10.40 | 5.47 | 6.30 | 
COc1ccc(-c2nc(C(=O)NCc3cccc(F)c3)c([C@H](C)N)o2)c2ccc(C(F)(F)F)nc12 | 9.52 | 5.85 | 6.80 | 
COc1ccccc1CNC(=O)c1nc(-c2ccc(OC)c3nc(C(F)(F)F)ccc23)oc1CN | 9.30 | 6.06 | 6.49 | 
COc1ccc(-c2nc(C(=O)NCc3ccc(F)cc3F)c(CN)o2)c2ccc(C(F)(F)F)nc12 | 9.22 | 5.66 | 6.00 | pIC50 [4]: 9.15
COc1ccc(-c2nc(C(=O)NCc3ccc(Cl)cc3Cl)c(CN)o2)c2ccc(C(F)(F)F)nc12 | 8.37 | 5.96 | 5.89 | 
COc1ccc(-c2nc(C(=O)NCc3ccc(S(C)(=O)=O)cc3)c(CN)o2)c2ccc(C(F)(F)F)nc12 | 7.43 |  |  | 
COc1ccc(-c2nc(C(=O)NCc3ccccc3F)c(CN)o2)c2ccc(C(F)(F)F)nc12 | 9.05 | 5.44 | 6.30 | 
COc1ccc(-c2nc(C(=O)N[C@H](CO)c3ccccc3)c([C@@H](C)N)o2)c2ccc(C(F)(F)F)nc12 | 8.08 |  |  | 
COc1ccc(-c2nc(C(=O)NCc3c(F)cccc3Cl)c([C@H](C)N)o2)c2ccc(C(F)(F)F)nc12 | 10.52 | 5.80 | 6.92 | 
CC[C@H](N)c1oc(-c2ccc(OC)c3nc(C(F)(F)F)ccc23)nc1C(=O)NCc1ccc(Cl)cc1 | 9.09 |  |  | 
COc1ccc(-c2nc(C(=O)N[C@H](CO)c3ccccc3)c([C@H](C)N)o2)c2ccc(C(F)(F)F)nc12 | 9.96 |  |  | 

Structure (SMILES) | pIC50 [1] | pIC50 [2] | pIC50 [3] | also measured
COc1ccc(-c2nc(C(=O)NCc3ccc(C#N)cc3)c(CN)o2)c2ccc(C(F)(F)F)nc12 | 7.59 |  |  | 
COc1ccc(-c2nc(C(=O)NCc3ccc(F)cc3F)c([C@H](C)N)o2)c2ccc(C(F)(F)F)nc12 | 10.22 | 5.64 | 6.02 | pIC50 (Cytochrome P450 2D6): < 5.10; pIC50 (Cytochrome P450 3A4): < 5.10; pIC50 (Cytochrome P450 2C9): < 5.10; bioavailability [5]: 24%; ED50 (Rattus norvegicus): 0.1 mg/kg; pIC50 (Cytochrome P450 2C19): < 5.10; Cmax [6]: 960 nM; pIC50 [7]: 9.22
COc1ccc(-c2nc(C(=O)NCc3c(F)cccc3F)c([C@H](C)N)o2)c2ccc(C(F)(F)F)nc12 | 10.30 | 5.85 | 6.90 | 
COc1ccc(-c2nc(C(=O)NCc3ccccc3Cl)c(CN)o2)c2ccc(C(F)(F)F)nc12 | 8.92 | 5.64 | 6.21 | 
COc1ccc(-c2nc(C(=O)NCc3ccc(Cl)cc3Cl)c([C@H](C)N)o2)c2ccc(C(F)(F)F)nc12 | 9.15 | 5.74 | 5.77 | 
COc1ccc(-c2nc(C(=O)NCc3ccccc3F)c([C@H](C)N)o2)c2ccc(C(F)(F)F)nc12 | 9.52 | 5.96 | 7.10 | 
COc1ccc(-c2nc(C(=O)NCc3ccc(Cl)cc3F)c([C@H](C)N)o2)c2ccc(C(F)(F)F)nc12 | 9.15 | 5.96 | 6.15 | 
COc1ccc(-c2nc(C(=O)NCc3ccc(Cl)cc3)c(CN)o2)c2ccc(C(F)(F)F)nc12 | 8.47 | 5.57 | 5.68 | 
COc1ccc(-c2nc(C(=O)NCc3ccc(Cl)cc3F)c(CN)o2)c2ccc(C(F)(F)F)nc12 | 8.57 | 5.57 | 5.66 | 
COc1ccc(-c2nc(C(=O)NCc3ccc(Cl)cc3)c([C@@H](N)CO)o2)c2ccc(C(F)(F)F)nc12 | 7.90 |  |  | 
COc1ccc(-c2nc(C(=O)NCc3ccc(F)c(F)c3)c([C@H](C)N)o2)c2ccc(C(F)(F)F)nc12 | 9.22 | 5.70 | 5.85 | 
COc1ccc(-c2nc(C(=O)NCc3ccc(F)cc3)c(CN)o2)c2ccc(C(F)(F)F)nc12 | 8.39 | 5.57 | 5.89 | 
COc1ccc(-c2nc(C(=O)NCc3ccc(F)cc3F)c([C@@H](N)C(C)C)o2)c2ccc(C(F)(F)F)nc12 | 9.44 |  |  | 
COc1ccc(-c2nc(C(=O)NCc3c(F)cccc3F)c(CN)o2)c2ccc(C(F)(F)F)nc12 | 9.34 | 5.60 | 6.62 | 
COc1ccc(-c2nc(C(=O)NCc3ccccc3)c(CN)o2)c2ccc(C(F)(F)F)nc12 | 8.43 | 5.32 | 5.92 | 
COc1ccc(-c2nc(C(=O)NCc3ccc(F)c(F)c3)c(CN)o2)c2ccc(C(F)(F)F)nc12 | 8.59 | 5.66 | 5.89 | 
